Results: US20140187784A1, “RADIOACTIVE QUINOLINONE DERIVATIVE AND PHARMACEUTICAL DRUG COMPRISING THE SAME” (Nihon Medi-Physics Co., Ltd., priority 2012, published 2014)

Experiments:
human CYP11B1 = target: T1, human CYP11B1 (Homo sapiens, UniProt P15538); experiment: Inhibition of cortisol production in V79-B1 cells expressing human CYP11B1 (ELISA); assay type: cell-based; details: 11-deoxycortisol 100 nmol/L, 1 hour, unlabeled form, read-out: IC50 against cortisol production
T1 construct: expressed in transfected cells; host or cells: Chinese hamster lung-derived fibroblast V79 cells (V79-B1)
T1 sequence (P15538 25-503): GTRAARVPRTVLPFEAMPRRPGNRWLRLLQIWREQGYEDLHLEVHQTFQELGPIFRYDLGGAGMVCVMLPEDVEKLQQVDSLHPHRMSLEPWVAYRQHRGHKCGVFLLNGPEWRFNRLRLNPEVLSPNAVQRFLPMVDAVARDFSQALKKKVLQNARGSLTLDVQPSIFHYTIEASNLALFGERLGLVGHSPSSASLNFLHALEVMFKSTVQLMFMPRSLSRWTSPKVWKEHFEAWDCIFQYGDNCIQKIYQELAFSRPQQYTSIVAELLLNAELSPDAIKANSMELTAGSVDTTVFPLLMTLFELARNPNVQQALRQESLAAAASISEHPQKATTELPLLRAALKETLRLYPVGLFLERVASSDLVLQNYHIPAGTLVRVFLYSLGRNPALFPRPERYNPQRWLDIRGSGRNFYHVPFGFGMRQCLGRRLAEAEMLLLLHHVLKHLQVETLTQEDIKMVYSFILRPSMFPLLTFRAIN
Procedure: (§1) Chinese hamster lung-derived fibroblast V79 cells (obtained from European Collection of Cell Cultures (ECACC) via DS Pharma Biomedical Co., Ltd.) were allowed to express human CYP11B2 and human CYP11B1 to prepare V79-B2 and V79-B1, respectively. V79-B2 or V79-B1 was inoculated to a microplate and cultured overnight. Then, corticosterone and 11-deoxycortisol were added at final concentrations of 100 nmol/L into the culture supernatants of V79-B2 and V79-B1, respectively. At the same time, iodometomidate (IMTO) or the unlabeled form of PAY15, PAY21, PAY27, or PAY54 synthesized in Example 2, 5, 8, or 12 was added at a final concentration of 10^−4 to 10^3 nmol/L into the culture supernatants. One hour later, the culture supernatant of V79-B1 was recovered, and the concentration of cortisol, which is a metabolite of CYP11B1, was measured by enzyme-linked immunosorbent assay (ELISA). Four hours later, the culture supernatant of V79-B2 was recovered, and the concentration of aldosterone, which is a metabolite of CYP11B2, was measured by ELISA. […] IC50 against cortisol production/IC50 against aldosterone production was calculated and used as a selectivity factor for CYP11B2.

CYP11B2 = target: T2, CYP11B2 (Homo sapiens, UniProt P19099); experiment: Inhibition of aldosterone production in V79-B2 cells expressing human CYP11B2 (ELISA); assay type: cell-based; set-up: expressed in transfected cells; host or cells: Chinese hamster lung-derived fibroblast V79 cells (V79-B2)
T2 sequence (P19099 25-503): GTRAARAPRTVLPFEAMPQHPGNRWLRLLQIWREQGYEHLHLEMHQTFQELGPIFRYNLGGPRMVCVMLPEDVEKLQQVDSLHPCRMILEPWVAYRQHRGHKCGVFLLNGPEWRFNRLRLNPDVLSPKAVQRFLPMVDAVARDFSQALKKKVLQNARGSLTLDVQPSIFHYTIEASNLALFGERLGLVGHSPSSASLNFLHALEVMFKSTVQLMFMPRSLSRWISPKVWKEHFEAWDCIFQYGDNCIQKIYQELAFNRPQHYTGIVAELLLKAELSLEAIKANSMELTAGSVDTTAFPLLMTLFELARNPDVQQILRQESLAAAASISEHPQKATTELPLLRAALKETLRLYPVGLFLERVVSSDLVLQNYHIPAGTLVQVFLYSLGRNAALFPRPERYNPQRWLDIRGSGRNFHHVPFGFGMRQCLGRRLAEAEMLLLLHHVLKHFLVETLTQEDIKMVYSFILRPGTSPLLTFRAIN
Procedure: as §1

[1] = Pharmacokinetic and distribution experiment (radioactivity in blood and excised organs after tail vein injection); assay type: in vivo; details: ddy mice; for Adrenal gland/Blood ratio / Adrenal gland/Kidney ratio / Adrenal gland/Liver ratio / Radioactivity Distribution, Adrenal gland / Radioactivity Distribution, Blood / Radioactivity Distribution, Heart / Radioactivity Distribution, Kidney / Radioactivity Distribution, Large intestine / Radioactivity Distribution, Liver / Radioactivity Distribution, Lung / Radioactivity Distribution, Pancreas / Radioactivity Distribution, Small intestine / Radioactivity Distribution, Spleen / Radioactivity Distribution, Stomach / Radioactivity Distribution, Thyroid: tail vein injection, 18.5 kBq (0.5 μCi)
Procedure: (§2) The HPLC fraction of [^125I]PAY15 obtained in Example 3 was concentrated and then diluted with saline. The resulting solution was used in administration. 100 μL of the solution (18.5 kBq (0.5 μCi)) was injected to the tail vein of each of five ddy mice (6 weeks old). Five minutes later, each mouse was decapitated, and blood was collected. Then, organs (adrenal gland, pancreas, heart, lung, stomach, small intestine, large intestine, liver, spleen, kidney, and thyroid gland) were excised. After measurement of their weights, the radioactivities of blood and each excised organ were measured. Also, the point in time when each mouse was decapitated was changed to 5, 15, 30, 60, and 120 minutes later to perform similar operation.
The HPLC fraction of [^125I]PAY21 obtained in Example 6 was concentrated and then diluted with saline. The resulting solution was used in administration to perform the same operation as in Evaluation 1.
as §2, with “[^18F]PAY27 obtained” for “The HPLC fraction of [^125I]PAY15 obtained”, “Example 10” for “Example 3”, “was” for “was concentrated and then”, “solution (14.8” for “solution (18.5”, “kBq (4” for “kBq (0.5”, “and thigh bone)” for “and thyroid gland)”
as §2, with “[^18F]PAY54 obtained” for “The HPLC fraction of [^125I]PAY15 obtained”, “Example 13” for “Example 3”, “was” for “was concentrated and then”, “solution (14.8” for “solution (18.5”, “kBq (4” for “kBq (0.5”, “and thigh bone)” for “and thyroid gland)”

O=C1CCc2cc(-c3cncc(I)c3)cc3c2N1CCC3 [PAY15, 9-(5-iodopyridin-3-yl)-1,2,6,7-tetrahydro-5H-pyrido[3,2,1-ij]quinolin-3-one]
IC50 (human CYP11B1): 0.141 µM | Selectivity factor (CYP11B2; IC50 against cortisol production/IC50 against aldosterone production, selectivity factor for CYP11B2): 223.95 | IC50 (CYP11B2; V79-B2 cells, corticosterone 100 nmol/L, 4 hours, unlabeled form, read-out: IC50 against aldosterone production): 0.00063 µM | selectivity factor compared with IMTO (CYP11B2; selectivity factor for CYP11B2, Table 6): higher than that of IMTO

O=C1CCc2cc(-c3cncc([125I])c3)cc3c2N1CCC3 [[^125I]PAY15, 9-(5-[^125I]iodopyridin-3-yl)-1,2,6,7-tetrahydro-5H-pyrido[3,2,1-ij]quinolin-3-one]
radioactivity accumulation in the adrenal gland compared with blood and periadrenal tissues ([1]; at an early stage after administration): high radioactivity accumulation | Adrenal gland/Blood ratio ([1]; 5 min): 1.74 ± 0.12 | Adrenal gland/Kidney ratio ([1]; 5 min): 1.42 ± 0.03 | Adrenal gland/Liver ratio ([1]; 5 min): 1.70 ± 0.23 | Radioactivity Distribution, Adrenal gland ([1]; 5 min): 8.7 ± 1.7 % dose/g | Radioactivity Distribution, Blood ([1]; 5 min): 5.0 ± 1.2 % dose/g | Radioactivity Distribution, Heart ([1]; 5 min): 3.6 ± 0.8 % dose/g | Radioactivity Distribution, Kidney ([1]; 5 min): 6.1 ± 1.2 % dose/g | Radioactivity Distribution, Large intestine ([1]; 5 min): 1.9 ± 0.8 % dose/g | Radioactivity Distribution, Liver ([1]; 5 min): 5.1 ± 1.1 % dose/g | Radioactivity Distribution, Lung ([1]; 5 min): 7.4 ± 1.6 % dose/g | Radioactivity Distribution, Pancreas ([1]; 5 min): 4.0 ± 0.9 % dose/g | Radioactivity Distribution, Small intestine ([1]; 5 min): 3.7 ± 0.9 % dose/g | Radioactivity Distribution, Spleen ([1]; 5 min): 4.1 ± 0.8 % dose/g | Radioactivity Distribution, Stomach ([1]; 5 min): 3.5 ± 1.2 % dose/g | Radioactivity Distribution, Thyroid ([1]; 5 min): 71.6 ± 50.0 % dose/g | Adrenal gland/Blood ratio ([1]; 15 min): 1.18 ± 0.15 | Adrenal gland/Kidney ratio ([1]; 15 min): 1.24 ± 0.17 | Adrenal gland/Liver ratio ([1]; 15 min): 1.81 ± 0.07 | Radioactivity Distribution, Adrenal gland ([1]; 15 min): 7.3 ± 3.9 % dose/g | Radioactivity Distribution, Blood ([1]; 15 min): 4.9 ± 0.3 % dose/g | Radioactivity Distribution, Heart ([1]; 15 min): 2.6 ± 0.5 % dose/g | Radioactivity Distribution, Kidney ([1]; 15 min): 4.5 ± 0.4 % dose/g | Radioactivity Distribution, Large intestine ([1]; 15 min): 1.8 ± 0.2 % dose/g | Radioactivity Distribution, Liver ([1]; 15 min): 3.0 ± 0.3 % dose/g | Radioactivity Distribution, Lung ([1]; 15 min): 4.9 ± 0.3 % dose/g | Radioactivity Distribution, Pancreas ([1]; 15 min): 2.8 ± 0.1 % dose/g | Radioactivity Distribution, Small intestine ([1]; 15 min): 4.6 ± 0.9 % dose/g | Radioactivity Distribution, Spleen ([1]; 15 min): 3.2 ± 0.3 % dose/g | Radioactivity Distribution, Stomach ([1]; 15 min): 12.1 ± 2.0 % dose/g | Radioactivity Distribution, Thyroid ([1]; 15 min): 349.4 ± 115.9 % dose/g | Adrenal gland/Blood ratio ([1]; 30 min): 0.74 ± 0.40 | Adrenal gland/Kidney ratio ([1]; 30 min): 0.75 ± 0.20 | Adrenal gland/Liver ratio ([1]; 30 min): 1.82 ± 0.53 | Radioactivity Distribution, Adrenal gland ([1]; 30 min): 2.3 ± 1.2 % dose/g | Radioactivity Distribution, Blood ([1]; 30 min): 3.1 ± 0.3 % dose/g | Radioactivity Distribution, Heart ([1]; 30 min): 1.3 ± 0.1 % dose/g | Radioactivity Distribution, Kidney ([1]; 30 min): 3.5 ± 0.9 % dose/g | Radioactivity Distribution, Large intestine ([1]; 30 min): 1.6 ± 0.2 % dose/g | Radioactivity Distribution, Liver ([1]; 30 min): 1.5 ± 0.2 % dose/g | Radioactivity Distribution, Lung ([1]; 30 min): 3.6 ± 1.6 % dose/g | Radioactivity Distribution, Pancreas ([1]; 30 min): 1.7 ± 0.1 % dose/g | Radioactivity Distribution, Small intestine ([1]; 30 min): 4.0 ± 0.4 % dose/g | Radioactivity Distribution, Spleen ([1]; 30 min): 2.2 ± 0.3 % dose/g | Radioactivity Distribution, Stomach ([1]; 30 min): 25.0 ± 6.4 % dose/g | Radioactivity Distribution, Thyroid ([1]; 30 min): 486.5 ± 245.4 % dose/g | Adrenal gland/Blood ratio ([1]; 60 min): 0.82 ± 0.16 | Adrenal gland/Kidney ratio ([1]; 60 min): 0.84 ± 0.21 | Adrenal gland/Liver ratio ([1]; 60 min): 1.90 ± 0.47 | Radioactivity Distribution, Adrenal gland ([1]; 60 min): 1.7 ± 1.3 % dose/g | Radioactivity Distribution, Blood ([1]; 60 min): 2.9 ± 0.2 % dose/g | Radioactivity Distribution, Heart ([1]; 60 min): 1.0 ± 0.0 % dose/g | Radioactivity Distribution, Kidney ([1]; 60 min): 2.7 ± 0.6 % dose/g | Radioactivity Distribution, Large intestine ([1]; 60 min): 1.7 ± 0.5 % dose/g | Radioactivity Distribution, Liver ([1]; 60 min): 1.2 ± 0.1 % dose/g | Radioactivity Distribution, Lung ([1]; 60 min): 2.4 ± 0.1 % dose/g | Radioactivity Distribution, Pancreas ([1]; 60 min): 1.5 ± 0.1 % dose/g | Radioactivity Distribution, Small intestine ([1]; 60 min): 4.0 ± 0.4 % dose/g | Radioactivity Distribution, Spleen ([1]; 60 min): 1.6 ± 0.2 % dose/g | Radioactivity Distribution, Stomach ([1]; 60 min): 31.3 ± 11.2 % dose/g | Radioactivity Distribution, Thyroid ([1]; 60 min): 1298.8 ± 729.1 % dose/g | Adrenal gland/Blood ratio ([1]; 120 min): 0.86 ± 0.46 | Adrenal gland/Kidney ratio ([1]; 120 min): 0.87 ± 0.42 | Adrenal gland/Liver ratio ([1]; 120 min): 0.73 ± 0.42 | Radioactivity Distribution, Adrenal gland ([1]; 120 min): 2.1 ± 1.4 % dose/g | Radioactivity Distribution, Blood ([1]; 120 min): 2.3 ± 0.5 % dose/g | Radioactivity Distribution, Heart ([1]; 120 min): 0.8 ± 0.2 % dose/g | Radioactivity Distribution, Kidney ([1]; 120 min): 2.7 ± 1.6 % dose/g | Radioactivity Distribution, Large intestine ([1]; 120 min): 2.4 ± 1.0 % dose/g | Radioactivity Distribution, Liver ([1]; 120 min): 1.0 ± 0.2 % dose/g | Radioactivity Distribution, Lung ([1]; 120 min): 2.0 ± 0.4 % dose/g | Radioactivity Distribution, Pancreas ([1]; 120 min): 1.3 ± 0.3 % dose/g | Radioactivity Distribution, Small intestine ([1]; 120 min): 3.0 ± 0.6 % dose/g | Radioactivity Distribution, Stomach ([1]; 120 min): 27.4 ± 5.2 % dose/g | Radioactivity Distribution, Thyroid ([1]; 120 min): 1400.6 ± 695.3 % dose/g
